Measurements: patent US3957785A, “Bβ-Pyrimidino-aminomethyl-10α-ergoline and 10α-methoxyergoline derivatives” (priority 1971, dated 1976)
“And” between values parts separate entries of the source, which are not always exact repeats. Equal entries are not always repeated. Where two headings read alike, the source gives them in different places.

Assays:
[1] = test system: isolated guinea pig seminal vescicle; experiment: inhibition of the spasmogen effect caused by adrenaline on isolated guinea pig seminal vescicle (adrenolytic activity in vitro); design: unit: μg/ml; details: isolated guinea pig seminal vescicle in physiological solution
Experimental: The compounds of the present invention have a high and prolonged adrenolytic activity and a low toxicity and are therefore useful in therapy. This adrenolytic activity was tested on several of the present compounds in vitro in comparison with dihydroergotamine on isolated guinea pig seminal vescicle suspended in a physiological solution.
Table 1 reports the values of concentrations, in μg/ml., which are able to produce a 50% inhibition (IC50) of the spasmogen effect caused by adrenaline.

[2] = test system: lethal effects caused by adrenaline; experiment: adrenolytic activity in vivo on the rat: reduction of lethal effects caused by adrenaline; details: read-out: ID50 (dose reducing by 50% the lethal effects caused by adrenaline)
Experimental: (§1) The adrenolytic activity of the compounds of the invention was also determined in vivo on the rat in comparison with dihydroergotamine and nicergoline. Table 2 reports the doses in mg/kg (ID50) able to reduce by 50% the lethal effects caused by adrenaline after oral (os) and intravenous (i.v.) administration of these compounds as compared with dihydroergotamine and with nicergoline, i.e., 1,6-dimethyl-8 -(5'-bromonicotinoyloxymethyl)-10 -methoxyergoline (Br. J. Pharmac, 34, 700, 1968).

[3] = acute toxicity LD50 in rats; details: rat, in vivo
lethal adrenaline dose = experiment: percentage of animals protected against lethal adrenaline dose, hours after administration; assay type: in vivo, rat
Experimental: as §1
Some of the compounds reported in Table 2 have a long lasting effect of up to 24 hours as shown by the data contained in Table 3.
Percentage of animals protected against lethal adrenaline dose

adrenalin = experiment: submaximal inhibiting dosage protecting 80% of rats against adrenalin injected 8 hours after administration; assay type: in vivo; details: Rattus norvegicus, po, 8 h, read-out: ID (submaximal inhibiting dosage which protects 80% of the tested animals)
Experimental: This greater stability was confirmed by the determination of the submaximal inhibiting dosage which protects 80% of the tested animals (rats) against a single dose of 200 mg/Kg of body weight of adrenalin injected 8 hours after administration of the tested compounds according to the invention.

hypertensive rat = experiment: hypotensive activity on the hypertensive rat; assay type: in vivo; details: po, read-out: Hypotensive Activity, Active Dose (dose causing a pressure drop of about 30-40 mmHg)
Experimental: The hypotensive activity was tested on the hypertensive rat; the reported data being the dose, expressed in mg/kg per os, which causes a pressure drop of about 30-40 mmHg.

[4] = analgesic activity, writhing test; assay type: in vivo; details: for Analgesic Activity, Writhing, relative to D-propoxyphene: D-propoxyphene assigned the value of 1; for Analgesic Activity, Writhing, relative to morphine: morphine assigned the value of 1
Experimental: (§2) The analgesic activity was evaluated by means of the hot plate test and the writhing test, the data being given in comparison with morphine and D-propoxyphene.
(§3) In the hot plate and writhing tests, the comparison compounds morphine and D-propoxyphene have been arbitrarily assigned the value of 1. Thus, in the hot plate test, the compound 1,6-dimethyl-8β-(2-pyrimidino-aminomethyl)-10α-ergoline has the same activity as both morphine and D-propoxyphene, while in the writhing test that compound has 1/2 the activity of morphine and 5 times the activity of D-propoxyphene.

[5] = analgesic activity, hot plate test; assay type: in vivo
Experimental: as §2, §3

[6] = 0.5 mg/Kg per os, 1 hour after administration
[7] = 0.5 mg/Kg per os, 2 hours after administration
[8] = 0.5 mg/Kg per os, 4 hours after administration
[9] = 0.5 mg/Kg per os, 8 hours after administration
[10] = 0.1 mg/Kg per os, 1 hour after administration
[11] = 0.1 mg/Kg per os, 2 hours after administration
[12] = 0.5 mg/Kg per os, 0.5 hours after administration

Row | Structure (SMILES) | TC50 (concentration producing 50% inhibition (IC50) of the spasmogen effect caused by adrenaline) [1] [μc/ml] | ED50 ([2]; iv) [mg/kg] | ED50 ([2]; po, os) [mg/kg] | LD50 ([3]; iv) [mg/kg] | LD50 ([3]; po, os) [mg/kg] | ED80 (adrenalin) [mg/kg] | further results
1 | COC12CC(CNc3ncccn3)CN(C)C1Cc1cn(C)c3cccc2c13 (stereo not drawn) [1,6-dimethyl-8β -(2-pyrimidino-aminomethyl)-10α -methoxyergoline] | 0.005 | 0.2 | 1 | 25 | 250 | – | –
2 | COC12CC(CNc3ncc(Br)cn3)CN(C)C1Cc1cn(C)c3cccc2c13 (stereo not drawn) [1,6-dimethyl-8β -(5-bromo-2-pyrimidino-aminomethyl)-10α -methoxyergoline] | 0.005 | 0.08 | 0.32 | 50 | 230 | – | –
3 | COC12CC(CNc3ncc(C#N)cn3)CN(C)C1Cc1cn(C)c3cccc2c13 (stereo not drawn) [1,6-dimethyl-8β -(5-cyano-2-pyrimidino-aminomethyl)-10α -methoxyergoline] | 0.0001 | 0.015 | 0.2 | 38 | 160 | 0.5 | % survivors (lethal adrenaline dose; 0.2 mg/Kg per os, 2 hours after administration): 100%; % survivors (lethal adrenaline dose; 0.2 mg/Kg per os, 4 hours after administration): 90%; % survivors (lethal adrenaline dose; [6]): 80%; % survivors (lethal adrenaline dose; [7]): 90%; % survivors (lethal adrenaline dose; [8]): 80%; % survivors (lethal adrenaline dose; [9]): 80%; ED (30-40 mmHg pressure drop) (hypertensive rat; Rattus norvegicus): 1 to 2.5 mg/kg; Analgesic Activity, Writhing, relative to D-propoxyphene [4]: 1; Analgesic Activity, Writhing, relative to morphine [4]: 0.2
4 | Cc1cc(C)nc(NCC2CC3c4cccc5c4c(cn5C)CC3N(C)C2)n1 (stereo not drawn) [1,6-dimethyl-8β(4,6-dimethyl-2-pyrimidino-aminomethyl)-10α -ergoline] | – | – | 1.25 | – | – | – | % survivors (lethal adrenaline dose; 2.5 mg/Kg per os, 1 hour after administration): 80%; % survivors (lethal adrenaline dose; 2.5 mg/Kg per os, 2 hours after administration): 60%; % survivors (lethal adrenaline dose; 2.5 mg/Kg per os, 4 hours after administration): 30%; % survivors (lethal adrenaline dose; 5 mg/Kg per os, 1 hour after administration): 100%; % survivors (lethal adrenaline dose; 5 mg/Kg per os, 2 hours after administration): 80%; % survivors (lethal adrenaline dose; 5 mg/Kg per os, 4 hours after administration): 50%; % survivors (lethal adrenaline dose; 5 mg/Kg per os, 8 hours after administration): 20%; % survivors (lethal adrenaline dose; 10 mg/Kg per os, 1 hour after administration): 100%; % survivors (lethal adrenaline dose; 10 mg/Kg per os, 2 hours after administration): 100%; % survivors (lethal adrenaline dose; 10 mg/Kg per os, 4 hours after administration): 60%
5 | CN1CC(CNc2ncccn2)CC2c3cccc4c3c(cn4C)CC21 (stereo not drawn) [1,6-dimethyl-8β-(2-pyrimidino-aminomethyl)-10α -ergoline] | – | – | – | – | – | – | ED (30-40 mmHg pressure drop) (hypertensive rat; hypertensive rat, per os): 5 to 10 mg/kg; Analgesic Activity, Writhing, relative to D-propoxyphene [4]: 5; Analgesic Activity, Writhing, relative to morphine [4]: 0.5 and 1/2
6 | CN1CC(CNc2ncc(N)cn2)CC2c3cccc4c3c(cn4C)CC21 (stereo not drawn) [1,6-dimethyl-8β-(5-amino-2-pyrimidino-aminomethyl)-10α-ergoline] | – | 0.18 | 0.5 | 18 | 140 | 1 | –
7 | CN1CC(CNc2ncc(Cl)cn2)CC2c3cccc4c3c(cn4C)CC21 (stereo not drawn) [1,6-dimethyl-8β-(5-chloro-2-pyrimidino-aminomethyl)-10α -ergoline] | – | – | 0.14 | – | – | 1 | –
8 | CN1CC(CNc2ncc(C#N)cn2)CC2c3cccc4c3c(cn4C)CC21 (stereo not drawn) [1,6-dimethyl-8β-(5-cyano-2-pyrimidino-aminomethyl)-10α -ergoline] | 0.005 | 0.05 | 0.05 | 25 | 35 | – | ED (30-40 mmHg pressure drop) (hypertensive rat; Rattus norvegicus): 2.5 to 5 mg/kg
9 | Cc1cnc(NCC2CC3c4cccc5c4c(cn5C)CC3N(C)C2)nc1 (stereo not drawn) [1,6-dimethyl-8β-(5-methyl-2-pyrimidino-aminomethyl)-10 α-ergoline] | – | 0.15 | 0.1 | 35 | 140 | – | ED (30-40 mmHg pressure drop) (hypertensive rat; hypertensive rat, per os): 5 to 10 mg/kg; Analgesic Activity, Hot plate, relative to D-propoxyphene ([5]; D-propoxyphene assigned the value of 1): 5; Analgesic Activity, Hot plate, relative to morphine ([5]; morphine assigned the value of 1): 1; Analgesic Activity, Writhing, relative to D-propoxyphene [4]: 5; Analgesic Activity, Writhing, relative to morphine [4]: 0.5
10 | COC12CC(CNc3ncc(C)cn3)CN(C)C1Cc1cn(C)c3cccc2c13 (stereo not drawn) [1,6-dimethyl-8β-(5-methyl-2-pyrimidino-aminomethyl)-10α -methoxyergoline] | 0.001 | 0.1 | 0.1 | 18 | – | – | –
11 | CN1CC(CNc2ncc([N+](=O)[O-])cn2)CC2c3cccc4c3c(cn4C)CC21 (stereo not drawn) [1,6-dimethyl-8β-(5-nitro-2-pyrimidino-aminomethyl)-10α -ergoline] | 0.007 | 0.09 | 0.04 | – | – | 0.5 | % survivors (lethal adrenaline dose; 0.1 mg/Kg per os, 0.5 hours after administration): 50%; % survivors (lethal adrenaline dose; [10]): 90%; % survivors (lethal adrenaline dose; [11]): 60%; % survivors (lethal adrenaline dose; 0.1 mg/Kg per os, 4 hours after administration): 70%; % survivors (lethal adrenaline dose; 0.1 mg/Kg per os, 8 hours after administration): 60%; % survivors (lethal adrenaline dose; 0.1 mg/Kg per os, 16 hours after administration): 10%; % survivors (lethal adrenaline dose; [12]): 100%; % survivors (lethal adrenaline dose; [6]): 100%; % survivors (lethal adrenaline dose; [7]): 100%; % survivors (lethal adrenaline dose; [8]): 90%; % survivors (lethal adrenaline dose; [9]): 80%; % survivors (lethal adrenaline dose; 0.5 mg/Kg per os, 16 hours after administration): 30%; % survivors (lethal adrenaline dose; 0.5 mg/Kg per os, 24 hours after administration): 20%
12 | COC12CC(CNc3ncc([N+](=O)[O-])cn3)CN(C)C1Cc1cn(C)c3cccc2c13 (stereo not drawn) [1,6-dimethyl-8β-(5-nitro-2-pyrimidino-aminomethyl)-10α -methoxyergoline] | 0.001 | 0.2 | < 0.1 | 28 | 200 | – | % survivors (lethal adrenaline dose; [10]): 70%; % survivors (lethal adrenaline dose; [11]): 80%; % survivors (lethal adrenaline dose; [12]): 100%; % survivors (lethal adrenaline dose; [7]): 100%; % survivors (lethal adrenaline dose; [8]): 90%; % survivors (lethal adrenaline dose; [9]): 40%; ED (30-40 mmHg pressure drop) (hypertensive rat; Rattus norvegicus): 1 to 2.5 mg/kg
13 | CN1C[C@H](C(=O)N[C@]2(C)O[C@@]3(O)[C@@H]4CCCN4C(=O)[C@H](Cc4ccccc4)N3C2=O)C[C@@H]2c3cccc4[nH]cc(c34)C[C@H]21 [dihydroergotamine, reference compound] | 0.015 | 0.08 | 15 | – | – | > 20 | –
